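1) Cells in 96-well plates. 2) Compound, 48 h, 5 concentrations. 3) Linear interpolation between surrounding doses. 4) Unreached endpoint = highest concentration. Definition used: TGI = concentration required for complete inhibition of growth.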
What was measured:
Test in all cases: inhibition of tumour cell growth, NCI panel, 48 h
HCC-2998 colon = system: HCC-2998 colon
K-562 leukemia = system: K-562 leukemia
T-47D breast = system: T-47D breast
UO-31 renal = system: UO-31 renal
KM12 colon = system: KM12 colon
MDA-MB-435 = system: MDA-MB-435
UACC-62 melanoma = system: UACC-62 melanoma
MALME-3M melanoma = system: MALME-3M melanoma
SF-268 CNS = system: SF-268 CNS
MOLT-4 leukemia = system: MOLT-4 leukemia
HCT-116 colon = system: HCT-116 colon
786-0 renal = system: 786-0 renal
SF-539 CNS = system: SF-539 CNS
HCT-15 colon = system: HCT-15 colon
OVCAR-5 ovarian = system: OVCAR-5 ovarian
MDA-N = system: MDA-N
BT-549 breast = system: BT-549 breast
HS 578T breast = system: HS 578T breast
UACC-257 melanoma = system: UACC-257 melanoma
EKVX NSCLC = system: EKVX NSCLC
DU-145 prostate = system: DU-145 prostate
CAKI-1 renal = system: CAKI-1 renal
SN12C renal = system: SN12C renal
COLO 205 colon = system: COLO 205 colon
M14 melanoma = system: M14 melanoma
MDA-MB-231 breast = system: MDA-MB-231 breast
HT29 colon = system: HT29 colon
OVCAR-8 ovarian = system: OVCAR-8 ovarian
SW-620 colon = system: SW-620 colon
OVCAR-4 ovarian = system: OVCAR-4 ovarian
NCI-H23 lung = system: NCI-H23 lung
CCRF-CEM leukemia = system: CCRF-CEM leukemia
ACHN renal = system: ACHN renal
NCI-H460 lung = system: NCI-H460 lung
U251 CNS = system: U251 CNS
RPMI-8226 leukemia = system: RPMI-8226 leukemia
SK-MEL-2 melanoma = system: SK-MEL-2 melanoma
PC-3 prostate = system: PC-3 prostate
SNB-19 CNS = system: SNB-19 CNS
OVCAR-3 ovarian = system: OVCAR-3 ovarian
MCF7 breast = system: MCF7 breast
SK-MEL-28 melanoma = system: SK-MEL-28 melanoma
HOP-62 NSCLC = system: HOP-62 NSCLC
SK-OV-3 ovarian = system: SK-OV-3 ovarian
A498 renal = system: A498 renal
A549 NSCLC = system: A549 NSCLC
NCI/ADR-RES ovarian = system: NCI/ADR-RES ovarian
SNB-75 CNS = system: SNB-75 CNS
SF-295 CNS = system: SF-295 CNS
NCI-H226 lung = system: NCI-H226 lung
LOX IMVI melanoma = system: LOX IMVI melanoma
SK-MEL-5 melanoma = system: SK-MEL-5 melanoma
IGROV1 ovarian = system: IGROV1 ovarian
HOP-92 NSCLC = system: HOP-92 NSCLC
HL-60(TB) leukemia = system: HL-60(TB) leukemia
NCI-H522 lung = system: NCI-H522 lung
TK-10 renal = system: TK-10 renal
RXF 393 renal = system: RXF 393 renal

C=CCNC(NCC=C)=C(C(Cl)=C(Cl)Cl)[N+](=O)[O-]
TGI (HCC-2998 colon): > 100 µM | TGI (K-562 leukemia): 54.3 µM | TGI (T-47D breast): > 100 µM | TGI (UO-31 renal): > 100 µM | TGI (KM12 colon): > 100 µM | TGI (MDA-MB-435): > 100 µM | TGI (UACC-62 melanoma): > 100 µM | TGI (MALME-3M melanoma): 30.7 µM | TGI (SF-268 CNS): > 100 µM | TGI (MOLT-4 leukemia): 87.9 µM | TGI (HCT-116 colon): > 100 µM | TGI (786-0 renal): > 100 µM | TGI (SF-539 CNS): 71.7 µM | TGI (HCT-15 colon): 32.9 µM | TGI (OVCAR-5 ovarian): > 100 µM | TGI (MDA-N): > 100 µM | TGI (BT-549 breast): 83.4 µM | TGI (HS 578T breast): 54 µM | TGI (UACC-257 melanoma): > 100 µM | TGI (EKVX NSCLC): > 100 µM | TGI (DU-145 prostate): > 100 µM | TGI (CAKI-1 renal): > 100 µM | TGI (SN12C renal): > 100 µM | TGI (COLO 205 colon): 37.2 µM | TGI (M14 melanoma): > 100 µM | TGI (MDA-MB-231 breast): > 100 µM | TGI (HT29 colon): > 100 µM | TGI (OVCAR-8 ovarian): 31.2 µM | TGI (SW-620 colon): 55.7 µM | TGI (OVCAR-4 ovarian): > 100 µM | TGI (NCI-H23 lung): > 100 µM | TGI (CCRF-CEM leukemia): > 100 µM | TGI (ACHN renal): > 100 µM | TGI (NCI-H460 lung): > 100 µM | TGI (U251 CNS): > 100 µM | TGI (RPMI-8226 leukemia): > 100 µM | TGI (SK-MEL-2 melanoma): > 100 µM | TGI (PC-3 prostate): > 100 µM | TGI (SNB-19 CNS): > 100 µM | TGI (OVCAR-3 ovarian): > 100 µM | TGI (MCF7 breast): > 100 µM | TGI (SK-MEL-28 melanoma): > 100 µM | TGI (HOP-62 NSCLC): > 100 µM | TGI (SK-OV-3 ovarian): > 100 µM | TGI (A498 renal): > 100 µM | TGI (A549 NSCLC): > 100 µM | TGI (NCI/ADR-RES ovarian): > 100 µM | TGI (SNB-75 CNS): > 100 µM | TGI (SF-295 CNS): > 100 µM | TGI (NCI-H226 lung): > 100 µM

CCOC(=O)C1C(C(C)C)C2(C#N)C(=N)OC1(C)C2(C#N)C#N (configuration not stated)
TGI (HCC-2998 colon): > 100 µM | TGI (K-562 leukemia): > 100 µM | TGI (T-47D breast): > 100 µM | TGI (UO-31 renal): > 100 µM | TGI (KM12 colon): > 100 µM | TGI (MDA-MB-435): > 100 µM | TGI (UACC-62 melanoma): > 100 µM | TGI (MALME-3M melanoma): > 100 µM | TGI (SF-268 CNS): > 100 µM | TGI (HCT-116 colon): > 100 µM | TGI (786-0 renal): > 100 µM | TGI (SF-539 CNS): > 100 µM | TGI (HCT-15 colon): > 100 µM | TGI (OVCAR-5 ovarian): > 100 µM | TGI (MDA-N): 33.6 µM | TGI (HS 578T breast): > 100 µM | TGI (UACC-257 melanoma): > 100 µM | TGI (EKVX NSCLC): > 100 µM | TGI (DU-145 prostate): > 100 µM | TGI (CAKI-1 renal): 23 µM | TGI (SN12C renal): > 100 µM | TGI (COLO 205 colon): 82.1 µM | TGI (M14 melanoma): > 100 µM | TGI (MDA-MB-231 breast): > 100 µM | TGI (HT29 colon): > 100 µM | TGI (OVCAR-8 ovarian): > 100 µM | TGI (SW-620 colon): > 100 µM | TGI (NCI-H23 lung): > 100 µM | TGI (CCRF-CEM leukemia): > 100 µM | TGI (ACHN renal): > 100 µM | TGI (U251 CNS): > 100 µM | TGI (RPMI-8226 leukemia): > 100 µM | TGI (SK-MEL-2 melanoma): > 100 µM | TGI (PC-3 prostate): > 100 µM | TGI (SNB-19 CNS): > 100 µM | TGI (LOX IMVI melanoma): > 100 µM | TGI (MCF7 breast): > 100 µM | TGI (SK-MEL-28 melanoma): > 100 µM | TGI (SK-OV-3 ovarian): > 100 µM | TGI (SK-MEL-5 melanoma): > 100 µM | TGI (IGROV1 ovarian): > 100 µM | TGI (HOP-92 NSCLC): > 100 µM | TGI (A498 renal): > 100 µM | TGI (A549 NSCLC): > 100 µM | TGI (NCI/ADR-RES ovarian): > 100 µM | TGI (HL-60(TB) leukemia): > 100 µM | TGI (SNB-75 CNS): 74.4 µM | TGI (NCI-H522 lung): > 100 µM | TGI (TK-10 renal): > 100 µM | TGI (RXF 393 renal): > 100 µM | TGI (SF-295 CNS): > 100 µM | TGI (NCI-H226 lung): > 100 µM

Reference: PubChem BioAssay (NCI)
